# What was measured:
# [1] = test system: mouse skin; test: Bleomycin-induced dermal fibrosis in vivo in mouse skin; conditions: single administration 10 μg/ml on first day, daily bleomycin s.c., skin harvested after 10 days
# Protocol: FIGS. 8A-8B. The effect of endostatin E-4 on bleomycin induced dermal fibrosis in vivo. A: Mice were injected subcutaneously with 1×PBS as vehicle (V) or Bleomycin (Bleo; 20 μg/mouse) daily. E-4 (10 μg/ml) was mixed with bleomycin on the first day, and daily bleomycin administration was continued without subsequent injections of E4 (Bleo+E-4). Skin was harvested after 10 days. Sections were stained with H&E. Magnification, 100×. B: Graphical summary of dermal thickness data shown in A. Data represent three independent experiments. Mann-Whitney U test was used for statistical analysis. * P<0.001, ** P<0.00001.
# E4, a peptide representing the carboxy terminus of human endostatin, can attenuate fibrosis triggered by multiple fibrogenic factors. The anti-fibrotic effects of E4 can be detected whether administered concomitantly with or following the fibrogenic trigger. […]
# For these studies, fibrosis was assessed by measurement of dermal thickness on H&E skin sections (skin), assessment of collagen levels by Masson Trichrome staining (skin and lung), and measurement of collagen levels by Sircol assay (lung). […] Results were assessed using the unpaired t test and the 3-way ANOVA (for the ID1 data).
# [2] = test system: Human umbilical vein endothelial cells (HUVECs); test: Tubular formation assay in Matrigel; type: cell-based; conditions: 50 nM, 24 hours
# Protocol: The ability of endostatin peptide to inhibit angiogenesis was examined in tubular formation assay using Matrigel® culture. Human umbilical vein endothelial cells (HUVECs) were maintained in endothelial cell basal medium-2 (EBM-2; Clonetics, San Diego, Calif.) supplemented with EBM-2 MV SingleQuots®. HUVECs (5×10^4) were cultured in duplicate on 24-well Matrigel® plates (BD Biosciences, San Diego, Calif.) alone, or in the presence of rE or E4 peptide (50 nM) in EBM-2 at 37° C. DMSO was used as vehicle control. After 24 hours, images were captured using a […] microscope. The degree of cord formation was quantified by measuring the area occupied by tubes in 6 random fields per well. Three independent experiments were performed.
substance,measurement,setting,value
"H-^133SYCETWRTEAPSATGQASSLLGGRLLGQSAASCHHAYIVLCIENSFMT^180-CONH2 (H-SYCETWRTEAPSATGQASSLLGGRLLGQSAASCHHAYIVLCIENSFMT-NH2; cysteine pairing not given here; UniProt P39060 1704-1751, looked up, fragment) [E4, amino acids 133-180 of human endostatin; differs from E3 by the presence of a carboxy-terminal amide]",bleomycin induced dermal fibrosis (dermal thickness),[1],significant attenuation
same,inhibition of tubular structure formation,[2],modest
